In test [1] the target is T1, aggregated synthetic Aβ40 (Homo sapiens, UniProt P05067).
T1 construct: Synthetic Aβ40 is aggregated at a concentration of 50 μM
Kind of test: Thiazin-red R displacement fluorescence assay on aggregated A-beta. The class given is binding. Conditions: displacement of Thiazin-red R from aggregated Aβ40; compound 0.3 nM to 10000 nM; 30 min room temperature; Ex 531 nm/Em 595 nm.

For test [2], the target named is T2, aggregated recombinant human-microtubule associated protein Tau (Homo sapiens, UniProt P10636).
T2 construct: Recombinant human-microtubule associated protein Tau purified from E. coli is aggregated at a concentration of 5 μM with Arachidonic Acid (100 μM) in Tris 10 mM pH8, 24 h at 37° C
T2 sequence (P10636 whole entry): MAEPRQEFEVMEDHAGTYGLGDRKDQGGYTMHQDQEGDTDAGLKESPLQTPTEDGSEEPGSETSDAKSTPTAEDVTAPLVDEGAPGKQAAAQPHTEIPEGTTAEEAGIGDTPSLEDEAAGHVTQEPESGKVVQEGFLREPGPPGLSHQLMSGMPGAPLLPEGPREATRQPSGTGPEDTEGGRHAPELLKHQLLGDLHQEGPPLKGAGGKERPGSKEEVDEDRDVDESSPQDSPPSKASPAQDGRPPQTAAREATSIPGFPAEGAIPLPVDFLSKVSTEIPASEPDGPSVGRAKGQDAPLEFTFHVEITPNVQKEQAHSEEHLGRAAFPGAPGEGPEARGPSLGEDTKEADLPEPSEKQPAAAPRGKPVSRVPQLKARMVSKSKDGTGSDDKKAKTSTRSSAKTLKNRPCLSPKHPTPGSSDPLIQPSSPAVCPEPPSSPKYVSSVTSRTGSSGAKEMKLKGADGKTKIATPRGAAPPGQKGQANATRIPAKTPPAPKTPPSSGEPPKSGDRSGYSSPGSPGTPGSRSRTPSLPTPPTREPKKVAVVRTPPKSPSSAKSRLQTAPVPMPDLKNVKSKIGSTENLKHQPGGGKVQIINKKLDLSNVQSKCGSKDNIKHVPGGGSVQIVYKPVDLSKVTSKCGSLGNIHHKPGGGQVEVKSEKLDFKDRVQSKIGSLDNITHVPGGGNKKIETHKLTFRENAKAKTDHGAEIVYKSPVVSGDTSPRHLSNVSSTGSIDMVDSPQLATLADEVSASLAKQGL
The experiment in a line: Thiazin-red R displacement fluorescence assay on aggregated Tau. Type of test: binding. Conditions: displacement of Thiazin-red R from aggregated Tau; compound 0.3 nM to 10000 nM; 30 min room temperature; Ex 531 nm/Em 595 nm.

pIC50: −log10 of the molar value.

T1 sequence (P05067 672-711 limits assumed): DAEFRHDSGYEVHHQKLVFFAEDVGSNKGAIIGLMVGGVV

Broadly, the pIC50 is −log10 of the IC50, conventionally taken in molar units. As for `CCCOc1cc(/C=c2\sc3nc(-c4cnccc4C)cn3c2=O)cc(Cl)c1O` [Example 109, 2-[1-(3-Chloro-4-hydroxy-5-propoxy-phenyl)-meth-(Z)-ylidene]-6-(4-methyl-pyridin-3-yl)-imidazo[2,1-b]thiazol-3-one], the pIC50 in test [1] was 5.31; in test [2], 7.48.
Consider `CCCOc1cc(/C=c2\sc3nc(-c4cccnc4)cn3c2=O)cc(Cl)c1O` [Example 110, 2-[1-(3-Chloro-4-hydroxy-5-propoxy-phenyl)-meth-(Z)-ylidene]-6-pyridin-3-yl-imidazo[2,1-b]thiazol-3-one], for which the pIC50 in test [1] is 6.37; in test [2], 7.77.
The matching figures for `CCCOc1cc(/C=c2\sc3nc(-c4ccncc4)cn3c2=O)cc(Cl)c1O` [Example 111, 2-[1-(3-Chloro-4-hydroxy-5-propoxy-phenyl)-meth-(Z)-ylidene]-6-pyridin-4-yl-imidazo[2,1-b]thiazol-3-one]: 5.84 and 7.77.
Turning to `CCCOc1cc(/C=c2\sc3nc(-c4ccc(-n5cnc(C)c5)nc4)cn3c2=O)cc(Cl)c1O` [Example 112, 2-[1-(3-Chloro-4-hydroxy-5-propoxy-phenyl)-meth-(Z)-ylidene]-6-[6-(4-methyl-imidazol-1-yl)-pyridin-3-yl]-imidazo[2,1-b]thiazol-3-one], the values for the pIC50 in test [1] and in test [2] were 6.31 and 8.10, respectively.
For `C=CCNC(=O)c1cccc(-c2cn3c(=O)/c(=C/c4cc(Cl)c(O)c(OC)c4)sc3n2)c1` [Example 113, N-Allyl-3-{2-[1-(3-chloro-4-hydroxy-5-methoxy-phenyl)-meth-(Z)-ylidene]-3-oxo-2,3-dihydro-imidazo[2,1-b]thiazol-6-yl}-benzamide] the same measures were 5.93 and 7.80.
For `CNC(=O)c1ccc(-c2cn3c(=O)/c(=C/c4cc(Cl)c(O)c(OC)c4)sc3n2)cc1` [Example 114, 4-{2-[1-(3-Chloro-4-hydroxy-5-methoxy-phenyl)-meth-(Z)-ylidene]-3-oxo-2,3-dihydro-imidazo[2,1-b]thiazol-6-yl}-N-methyl-benzamide] the same measures were 6.45 and 8.22.
For `CCCNC(=O)c1ccc(-c2cn3c(=O)/c(=C/c4cc(Cl)c(O)c(OC)c4)sc3n2)cc1` [Example 115, 4-{2-[1-(3-Chloro-4-hydroxy-5-methoxy-phenyl)-meth-(Z)-ylidene]-3-oxo-2,3-dihydro-imidazo[2,1-b]thiazol-6-yl}-N-propyl-benzamide] the same measures were 6.45 and 8.70.
In the case of `COc1cc(/C=c2\sc3nc(-c4ccc(C(=O)NCCF)cc4)cn3c2=O)cc(Cl)c1O` [Example 116, 4-{2-[1-(3-Chloro-4-hydroxy-5-methoxy-phenyl)-meth-(Z)-ylidene]-3-oxo-2,3-dihydro-imidazo[2,1-b]thiazol-6-yl}-N-(2-fluoro-ethyl)-benzamide], the pIC50 in test [1] was 6.09; in test [2] it was 8.52.
The matching figures for `COc1cc(/C=c2\sc3nc(-c4ccc(C(=O)NCCCF)cc4)cn3c2=O)cc(Cl)c1O` [Example 117, 4-{2-[1-(3-Chloro-4-hydroxy-5-methoxy-phenyl)-meth-(Z)-ylidene]-3-oxo-2,3-dihydro-imidazo[2,1-b]thiazol-6-yl}-N-(3-fluoro-propyl)-benzamide]: 6.19 and 8.30.
As for `COc1cc(/C=c2\sc3nc(-c4cccc(C(=O)N(C)CCc5cccc(F)c5)c4)cn3c2=O)cc(Cl)c1O` [Example 118, 3-{2-[1-(3-Chloro-4-hydroxy-5-methoxy-phenyl)-meth-(Z)-ylidene]-3-oxo-2,3-dihydro-imidazo[2,1-b]thiazol-6-yl}-N-[2-(3-fluoro-phenyl)-ethyl]-N-methyl-benzamide], the figures for the pIC50 in test [1] and in test [2] were less than 5.00 and 7.89, respectively.
For `CCCOc1cc(/C=c2\sc3nc(-c4cnc[nH]4)cn3c2=O)cc(Cl)c1O` [Example 119, 2-[1-(3-Chloro-4-hydroxy-5-propoxy-phenyl)-meth-(Z)-ylidene]-6-(3H-imidazol-4-yl)-imidazo[2,1-b]thiazol-3-one], the values for the negative-log IC50 (pIC50) in test [1] and in test [2] were 5.51 and 7.22, respectively.
With `COc1cc(/C=c2\sc3nc(-c4cccc(C(N)=O)c4)cn3c2=O)cc(F)c1O` [Example 121, 3-{2-[1-(3-Fluoro-4-hydroxy-5-methoxy-phenyl)-meth-(Z)-ylidene]-3-oxo-2,3-dihydro-imidazo[2,1-b]thiazol-6-yl}-benzamide], the pIC50 in test [1] is 6.23; in test [2], 7.72.
The matching figures for `CCCOc1cc(/C=c2\sc3nc(-c4ccncc4)cn3c2=O)cc(F)c1O` [Example 122, 2-[1-(3-Fluoro-4-hydroxy-5-propoxy-phenyl)-meth-(Z)-ylidene]-6-pyridin-4-yl-imidazo[2,1-b]thiazol-3-one]: 5.57 and 7.63.
The matching figures for `O=c1/c(=C/c2cc(Cl)c(O)c(OCCCF)c2)sc2nc(-c3ccncc3)cn12` [Example 123, 2-[1-(3-Chloro-5-(3-fluoropropoxy)-4-hydroxy-phenyl)-meth-(Z)-ylidene]-6-pyridin-4-yl-imidazo[2,1-b]thiazol-3-one]: 5.97 and 7.92.
`O=c1/c(=C/c2cc(F)c(O)c(OCCCF)c2)sc2nc(-c3ccncc3)cn12` [Example 124, 2-[1-(3-Fluoro-5-(3-fluoropropoxy)-4-hydroxy-phenyl)-meth-(Z)-ylidene]-6-pyridin-4-yl-imidazo[2,1-b]thiazol-3-one]: the negative-log IC50 (pIC50) was 5.91 in test [1] and 7.77 in test [2].
For `COc1cc(/C=c2\sc3nc(-c4ccc(C(=O)N(C)CCF)cc4)cn3c2=O)cc(Cl)c1O` [Example 125, 4-{2-[1-(3-Chloro-4-hydroxy-5-methoxy-phenyl)-meth-(Z)-ylidene]-3-oxo-2,3-dihydro-imidazo[2,1-b]thiazol-6-yl}-N-(2-fluoro-ethyl)-N-methyl-benzamide], the pIC50 in test [1] is 6.21; in test [2], 7.77.
In the case of `COc1cc(/C=c2\sc3nc(-c4ccc(C(=O)N(C)C)cc4)cn3c2=O)cc(Cl)c1O` [Example 126, 4-{2-[1-(3-Chloro-4-hydroxy-5-methoxy-phenyl)-meth-(Z)-ylidene]-3-oxo-2,3-dihydro-imidazo[2,1-b]thiazol-6-yl}-N,N-dimethyl-benzamide], the negative logarithm of the IC50 (pIC50) in test [1] is 6.26; in test [2] it was 7.55.
Regarding `COc1cc(/C=c2\sc3nc(-c4ccc(C(=O)N5CCC(F)CC5)cc4)cn3c2=O)cc(Cl)c1O` [Example 127, 2-[1-(3-Chloro-4-hydroxy-5-methoxy-phenyl)-meth-(Z)-ylidene]-6-[4-(4-fluoro-piperidine-1-carbonyl)-phenyl]-imidazo[2,1-b]thiazol-3-one], the pIC50 was 6.93 in test [1] and 8.22 in test [2].
For `CCCN(C)C(=O)c1ccc(-c2cn3c(=O)/c(=C/c4cc(Cl)c(O)c(OC)c4)sc3n2)cc1` [Example 128, 4-{2-[1-(3-Chloro-4-hydroxy-5-methoxy-phenyl)-meth-(Z)-ylidene]-3-oxo-2,3-dihydro-imidazo[2,1-b]thiazol-6-yl}-N-methyl-N-propyl-benzamide] the same measures were 6.66 and 8.05.
In the case of `CCCOc1cc(/C=c2\sc3nc(-c4cnccn4)cn3c2=O)cc(Cl)c1O` [Example 129, 2-[1-(3-Chloro-4-hydroxy-5-propoxy-phenyl)-meth-(Z)-ylidene]-6-pyrazin-2-yl-imidazo[2,1-b]thiazol-3-one], the results for the negative logarithm of the IC50 (pIC50) in test [1] and in test [2] were 5.65 and 7.19, respectively.
For `CCCOc1cc(/C=c2\sc3nc(-c4cncnc4)cn3c2=O)cc(Cl)c1O` [Example 130, 2-[1-(3-Chloro-4-hydroxy-5-propoxy-phenyl)-meth-(Z)-ylidene]-6-pyrimidin-5-yl-imidazo[2,1-b]thiazol-3-one] the same measures were 5.71 and 7.17.
`CCCOc1cc(/C=c2\sc3nc(-c4ccsc4)cn3c2=O)cc(Cl)c1O` [Example 131, 2-[1-(3-Chloro-4-hydroxy-5-propoxy-phenyl)-meth-(Z)-ylidene]-6-thiophen-3-yl-imidazo[2,1-b]thiazol-3-one]: the pIC50 was 6.01 in test [1] and 7.59 in test [2].
For the molecule `CCCOc1cc(/C=c2\sc3nc(-c4cccs4)cn3c2=O)cc(Cl)c1O` [Example 132, 2-[1-(3-Chloro-4-hydroxy-5-propoxy-phenyl)-meth-(Z)-ylidene]-6-thiophen-2-yl-imidazo[2,1-b]thiazol-3-one], the pIC50 in test [1] was 6.14; in test [2], 7.39.
The matching figures for `COc1cc(/C=c2\sc3nc(-c4ccc(C(=O)N5CC(F)C5)cc4)cn3c2=O)cc(Cl)c1O` [Example 134, 2-[1-(3-Chloro-4-hydroxy-5-methoxy-phenyl)-meth-(Z)-ylidene]-6-[4-(3-fluoro-azetidine-1-carbonyl)-phenyl]-imidazo[2,1-b]thiazol-3-one]: 6.88 and 8.70.
For `CCCOc1cc(/C=c2\sc3nc(-c4ccccn4)cn3c2=O)cc(Cl)c1O` [Example 136, 2-[1-(3-Chloro-4-hydroxy-5-propoxy-phenyl)-meth-(Z)-ylidene]-6-pyridin-2-yl-imidazo[2,1-b]thiazol-3-one] the same measures were 6.53 and 7.52.
The matching figures for `COc1cc(/C=c2\sc3nc(-c4ccc(C(=O)N(C)CCCF)cc4)cn3c2=O)cc(Cl)c1O` [Example 137]: 6.48 and 8.15.
Take `COc1cc(/C=c2\sc3nc(-c4ccc(C(=O)O)cc4)cn3c2=O)cc(F)c1O` [Example 138, 4-{2-[1-(3-Fluoro-4-hydroxy-5-methoxy-phenyl)-meth-(Z)-ylidene]-3-oxo-2,3-dihydro-imidazo[2,1-b]thiazol-6-yl}-benzoic acid]: the results for the pIC50 in test [1] and in test [2] were 6.05 and 7.85, respectively.

Source of the values: US20150157739A1, “Imidazo[2,1]thiazol-3-one derivatives” (Hoffmann-La Roche Inc., priority 2012, published 2015).
